Measured values reported in patent US11254668B2, “Pyrazolo[1,5-A]pyrazin-4-yl and related derivatives” (Pfizer Inc., priority 2017, dated 2022).

What was measured:
Assay type in all cases: biochemical
Details in all cases: JAK Caliper enzyme assay
JAK1 = JAK1 (Homo sapiens (Human), UniProt P23458); experiment: JAK Caliper Enzyme Assay at 1 mM ATP, JAK1
How it was run: (§1)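 Recombinant human kinase domains phosphorylated a fluorescent synthetic peptide at room temperature, with enzyme level and time tuned to 20% to 30% conversion; EDTA stop buffer ended reactions. Mobility-shift separation gave percent product from peak heights, normalised to DMSO and positive controls, and IC50s came from concentration–effect curves.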

JAK2 = JAK2 (Homo sapiens (Human), UniProt O60674); experiment: JAK Caliper Enzyme Assay at 1 mM ATP, JAK2
Sequence of JAK2 (O60674 849-1124): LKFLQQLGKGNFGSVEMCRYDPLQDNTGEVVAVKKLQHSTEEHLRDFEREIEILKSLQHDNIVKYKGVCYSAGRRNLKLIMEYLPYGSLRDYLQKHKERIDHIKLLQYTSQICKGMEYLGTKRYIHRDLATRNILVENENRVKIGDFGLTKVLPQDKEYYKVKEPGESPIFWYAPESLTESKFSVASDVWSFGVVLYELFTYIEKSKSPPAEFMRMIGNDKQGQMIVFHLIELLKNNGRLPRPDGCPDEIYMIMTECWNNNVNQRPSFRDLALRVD
How it was run: (§2)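 Peptide phosphorylation by recombinant human kinase domain, 1 mM ATP, room temperature, EDTA-terminated, detected by microfluidic mobility shift; % effect normalised to DMSO baseline.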

JAK3 = JAK3 (Homo sapiens (Human), UniProt P52333); experiment: JAK Caliper Enzyme Assay at 1 mM ATP, JAK3
Sequence of JAK3 (P52333 822-1111): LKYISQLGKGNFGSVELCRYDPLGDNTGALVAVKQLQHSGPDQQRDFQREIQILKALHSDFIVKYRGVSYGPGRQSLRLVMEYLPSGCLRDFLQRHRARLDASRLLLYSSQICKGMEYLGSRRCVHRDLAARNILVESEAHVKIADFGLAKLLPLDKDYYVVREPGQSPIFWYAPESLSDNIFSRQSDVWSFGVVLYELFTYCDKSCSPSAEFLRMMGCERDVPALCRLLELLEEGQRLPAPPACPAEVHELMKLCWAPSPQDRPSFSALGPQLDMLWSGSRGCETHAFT
How it was run: as §1

TYK2 = TYK2 (Homo sapiens (Human), UniProt P29597); experiment: JAK Caliper Enzyme Assay at 1 mM ATP, TYK2
Sequence of TYK2 (P29597 897-1176): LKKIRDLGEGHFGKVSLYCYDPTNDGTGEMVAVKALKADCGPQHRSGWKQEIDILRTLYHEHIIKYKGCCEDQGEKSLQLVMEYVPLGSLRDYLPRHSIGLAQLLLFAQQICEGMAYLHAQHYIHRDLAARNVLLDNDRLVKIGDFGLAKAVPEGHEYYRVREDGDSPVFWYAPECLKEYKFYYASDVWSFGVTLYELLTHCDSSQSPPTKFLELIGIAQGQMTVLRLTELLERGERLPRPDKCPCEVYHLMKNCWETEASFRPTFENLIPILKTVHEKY
How it was run: as §2

Sequence of JAK1 (P23458 875-1153): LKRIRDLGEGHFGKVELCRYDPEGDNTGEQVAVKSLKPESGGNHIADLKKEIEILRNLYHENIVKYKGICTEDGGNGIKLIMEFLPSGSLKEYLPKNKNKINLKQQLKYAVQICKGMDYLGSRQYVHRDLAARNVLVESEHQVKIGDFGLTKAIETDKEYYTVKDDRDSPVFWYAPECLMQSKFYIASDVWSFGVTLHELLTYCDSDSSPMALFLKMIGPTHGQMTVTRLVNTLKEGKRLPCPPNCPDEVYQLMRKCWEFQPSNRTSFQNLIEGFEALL

Row | Structure (SMILES) | IC50 (JAK1) | IC50 (JAK2) | IC50 (JAK3) | IC50 (TYK2)
1 | N#CC[C@]1(n2cc(-c3cc(-c4cc[nH]n4)cc4nccn34)cn2)C[C@H](C#N)C1 [Example 455, trans-3-(cyanomethyl)-3-{4-[7-(1H-pyrazol-3-yl)imidazo[1,2-a]pyridin-5-yl]-1H-pyrazol-1-yl}cyclobutanecarbonitrile] | > 10 µM | 5.68 µM | > 10 µM | 0.319 µM
2 | N#CC[C@]1(n2cc(-c3cc(-c4cn[nH]c4)cc4nccn34)cn2)C[C@@H](C#N)C1 [Example 456, cis-3-(cyanomethyl)-3-{4-[7-(1H-pyrazol-4-yl)imidazo[1,2-a]pyridin-5-yl]-1H-pyrazol-1-yl}cyclobutanecarbonitrile] | 1.31 µM | 0.812 µM | > 10 µM | 0.126 µM
3 | Cn1cc(-c2cc(-c3cnn(C4(CC#N)CN(CC(F)(F)F)C4)c3)n3ccnc3c2)cn1 [Example 457, [3-{4-[7-(1-methyl-1H-pyrazol-4-yl)imidazo[1,2-a]pyridin-5-yl]-1H-pyrazol-1-yl}-1-(2,2,2-trifluoroethyl)azetidin-3-yl]acetonitrile] | > 10 µM | 3.94 µM | > 10 µM | 0.252 µM
4 | Cn1cc(-c2cc(-c3cnn([C@]4(CC#N)C[C@@H](C#N)C4)c3)n3ccnc3c2)cn1 [Example 459, trans-3-(cyanomethyl)-3-{4-[7-(1-methyl-1H-pyrazol-4-yl)imidazo[1,2-a]pyridin-5-yl]-1H-pyrazol-1-yl}cyclobutanecarbonitrile] | > 10 µM | 3.15 µM | > 10 µM | 0.297 µM
5 | CO[C@H]1C[C@@](CC#N)(n2cc(-c3cc(-c4cnn(C)c4)cc4nccn34)cn2)C1 [Example 460, (cis-3-methoxy-1-{4-[7-(1-methyl-1H-pyrazol-4-yl)imidazo[1,2-a]pyridin-5-yl]-1H-pyrazol-1-yl}cyclobutyl)acetonitrile] | > 10 µM | 5.36 µM | > 10 µM | 0.395 µM
6 | Cc1cc(-c2cc(-c3cnn([C@]4(CC#N)C[C@@H](C#N)C4)c3)n3ccnc3c2)[nH]n1 [Example 461, trans-3-(cyanomethyl)-3-{4-[7-(3-methyl-1H-pyrazol-5-yl)imidazo[1,2-a]pyridin-5-yl]-1H-pyrazol-1-yl}cyclobutanecarbonitrile] | 1.56 µM | 0.389 µM | > 10 µM | 0.02 µM
7 | Cc1cc(-c2cc(-c3cnn([C@]4(CC#N)C[C@H](C#N)C4)c3)n3ccnc3c2)n[nH]1 [Example 462, cis-3-(cyanomethyl)-3-{4-[7-(5-methyl-1H-pyrazol-3-yl)imidazo[1,2-a]pyridin-5-yl]-1H-pyrazol-1-yl}cyclobutanecarbonitrile] | 0.873 µM | 0.188 µM | > 10 µM | 0.02 µM
8 | CO[C@H]1C[C@@](CC#N)(n2cc(-c3cc(-c4c[nH]nc4CO)cc4nccn34)cn2)C1 [Example 463, [cis-1-(4-{7-[3-(hydroxymethyl)-1H-pyrazol-4-yl]imidazo[1,2-a]pyridin-5-yl}-1H-pyrazol-1-yl)-3-methoxycyclobutyl]acetonitrile] | > 10 µM | > 10 µM | > 10 µM | 2.14 µM
9 | CO[C@H]1C[C@](CC#N)(n2cc(-c3cc(-c4c[nH]nc4CO)cc4nccn34)cn2)C1 [Example 464, [trans-1-(4-{7-[3-(hydroxymethyl)-1H-pyrazol-4-yl]imidazo[1,2-a]pyridin-5-yl}-1H-pyrazol-1-yl)-3-methoxycyclobutyl]acetonitrile] | > 10 µM | > 10 µM | > 10 µM | 4.66 µM
10 | Cc1ncc(-c2cc(-c3cnn([C@]4(CC#N)C[C@H](C#N)C4)c3)n3ccnc3c2)[nH]1 [Example 465, cis-3-(cyanomethyl)-3-{4-[7-(2-methyl-1H-imidazol-5-yl)imidazo[1,2-a]pyridin-5-yl]-1H-pyrazol-1-yl}cyclobutanecarbonitrile] | 6 µM | 0.859 µM | > 10 µM | 0.054 µM
11 | N#CC[C@]1(n2cc(-c3cc(-c4c[nH]nc4N)cc4nccn34)cn2)C[C@@H](C#N)C1 [Example 466, cis-3-{4-[7-(3-amino-1H-pyrazol-4-yl)imidazo[1,2-a]pyridin-5-yl]-1H-pyrazol-1-yl}-3-(cyanomethyl)cyclobutanecarbonitrile] | 2.71 µM | 1.26 µM | > 10 µM | 0.073 µM
12 | N#CC[C@]1(n2cc(-c3cc(-c4nc(CO)cs4)cc4nccn34)cn2)C[C@@H](C#N)C1 [Example 467, cis-3-(cyanomethyl)-3-(4-{7-[4-(hydroxymethyl)-1,3-thiazol-2-yl]imidazo[1,2-a]pyridin-5-yl}-1H-pyrazol-1-yl)cyclobutanecarbonitrile] | 1.6 µM | 0.518 µM | > 10 µM | 0.051 µM
13 | N#CC[C@]1(n2cc(-c3cc(-c4ccc(O)cc4)cc4nccn34)cn2)C[C@@H](C#N)C1 [Example 468, cis-3-(cyanomethyl)-3-{4-[7-(4-hydroxyphenyl)imidazo[1,2-a]pyridin-5-yl]-1H-pyrazol-1-yl}cyclobutanecarbonitrile] | 1.53 µM | 1.22 µM | > 10 µM | 0.127 µM
14 | N#CC[C@]1(n2cc(-c3cc(-c4ccc(N)nc4)cc4nccn34)cn2)C[C@@H](C#N)C1 [Example 469, cis-3-{4-[7-(6-aminopyridin-3-yl)imidazo[1,2-a]pyridin-5-yl]-1H-pyrazol-1-yl}-3-(cyanomethyl)cyclobutanecarbonitrile] | 2.39 µM | 1.04 µM | > 10 µM | 0.102 µM
15 | N#CC[C@]1(n2cc(-c3cc(-c4cccc(C(N)=O)n4)cc4nccn34)cn2)C[C@H](C#N)C1 [Example 470, 6-(5-{1-[cis-3-cyano-1-(cyanomethyl)cyclobutyl]-1H-pyrazol-4-yl}imidazo[1,2-a]pyridin-7-yl)pyridine-2-carboxamide] | 0.62 µM | 0.147 µM | > 10 µM | 0.025 µM
16 | Cn1cc(-c2cc(-c3cnn([C@]4(CC#N)C[C@H](C#N)C4)n3)n3ccnc3c2)cn1 [Example 473, cis-3-(cyanomethyl)-3-{4-[7-(1-methyl-1H-pyrazol-4-yl)imidazo[1,2-a]pyridin-5-yl]-2H-1,2,3-triazol-2-yl}cyclobutanecarbonitrile] | 6.47 µM | 1.93 µM | > 10 µM | 0.09 µM
17 | Cn1cc(-c2cc(-c3cnn(C4(CC#N)CC(C#N)C4)n3)n3ccnc3c2)cn1 (stereo not drawn) [Example 474, trans-3-(cyanomethyl)-3-{4-[7-(1-methyl-1H-pyrazol-4-yl)imidazo[1,2-a]pyridin-5-yl]-2H-1,2,3-triazol-2-yl}cyclobutanecarbonitrile] | > 10 µM | > 10 µM | > 10 µM | 1.12 µM
18 | Cn1cc(-c2cc(-c3cnn(C4(CC#N)CN(CC(F)(F)F)C4)c3)n3ncnc3c2)cn1 [Example 475, [3-{4-[7-(1-methyl-1H-pyrazol-4-yl)[1,2,4]triazolo[1,5-a]pyridin-5-yl]-1H-pyrazol-1-yl}-1-(2,2,2-trifluoroethyl)azetidin-3-yl]acetonitrile] | 6.67 µM | 6.85 µM | > 10 µM | 0.462 µM
